For 24 compounds, IC50 results are on record in US20250163002A1, “FUSED QUINONOXIME IMIDAZOLE, ONIUM DERIVATIVES THEREOF, PREPARATION AND USE THEREOF” (SHANGHAI JIAO TONG UNIVERSITY, priority 2022, published 2025).

A value given as a limit tells only on which side of the number the result lay.

What all share (format): cell-based
In one assay the test system is A549. The assay can be described thus: In vitro inhibition test for cancer cell proliferation (MTT), A549. Particulars: unit inferred.
For the next assay, the system named is L929. The assay can be described thus: In vitro cell proliferation inhibition test (MTT), L929. The note with it: unit inferred.
The next assay deals with HeLa. Description: In vitro inhibition test for cancer cell proliferation (MTT), HeLa. The note with it: 24 h or 48 h after addition, unit inferred.
For another assay, the system named is MCF-7. Description: In vitro inhibition test for cancer cell proliferation (MTT), MCF-7. Particulars: unit inferred.
[1] abbreviates: Homo sapiens, A549, 24 h or 48 h after addition.
Where [2] appears, read: Mus musculus, L929, 24 h or 48 h after addition.
Setting [3] is: Homo sapiens, MCF7, 24 h or 48 h after addition.

Usually IC50 stands for the concentration that inhibits the measured activity by half. In the case of `CCCCn1c2c([n+](C)c1-c1cc(OC)c(OC)c(OC)c1)C(=NOCc1ccccc1)c1ccccc1C2=O` [Compound 148, (E) and (Z)-4-((benzyloxy)imino)-1-butyl-3-methyl-9-oxo-2-(3,4,5-trimethoxyphenyl)-4,9-dihydro-1H-naphthol[2,3-d]imidazole-3-iodide], the IC50 in the assay with A549 (24 h or 48 h after addition) was found to be 0.09 µM; in the assay with L929 (24 h or 48 h after addition), 44.1 µM; in the assay on HeLa, 23.6 µM; with MCF-7 (24 h or 48 h after addition) it was 34.6 µM.
The corresponding values for `COCCn1c[n+](C)c2c1C(=O)c1ccccc1/C2=N\O` [Compound 100, (E)-4-(hydroxylimino)-1-(2-methoxyethyl)-3-methyl-9-oxo-4,9-dihydro-1H-naphthol[2,3-d]imidazole-3-iodide] are 0.62 µM, 6.64 µM, 2.18 µM and 0.87 µM.
On the same counts, the results for `Cn1c[n+](C)c2c1C(=O)c1ccccc1C2=NOCc1ccccc1` [Compound 138, (E) and (Z)-4-((benzyloxy)imino)-1,3-dimethyl-9-oxo-4,9-dihydro-1H-naphthol[2,3-d]imidazole-3-iodide] are 0.004 µM, 25.9 µM, 4.2 µM and 5.9 µM.
For the compound `Cn1c[n+](C)c2c1C(=O)c1ccccc1C2=NOC(C)(C)C` [Compound 130, (E) and (Z)-4-(tert-butoxyimino)-1,3-dimethyl-9-oxo-4,9-dihydro-1H-naphthol[2,3-d]imidazole-3-iodide], the IC50 in the assay on A549 (24 h or 48 h after addition) is 0.6 µM; in the assay with L929 (24 h or 48 h after addition) it was above 100 µM; in the assay on HeLa, 48.4 µM; in the assay on MCF-7 (24 h or 48 h after addition), 56.2 µM.
On to `C[n+]1cn(Cc2cccs2)c2c1/C(=N/O)c1ccccc1C2=O` [Compound 106, (E)-4-(hydroxylimino)-3-methyl-9-oxo-1-(thiophene-2-yl-methyl)-4,9-dihydro-1H-naphthol[2,3-d]imidazole-3-iodide], for which the IC50 in the assay on A549 (24 h or 48 h after addition) was 11.2 µM; in the assay on L929 (24 h or 48 h after addition), above 100 µM; with HeLa it was 9.2 µM; in the assay with MCF-7 (24 h or 48 h after addition), 20.2 µM.
The corresponding values for `C[n+]1cn(-c2ccccc2)c2c1/C(=N/O)c1ccccc1C2=O` [Compound 104, (E)-4-(hydroxylimino)-3-methyl-9-oxo-1-phenyl-4,9-dihydro-1H-naphthol[2,3-d]imidazole-3-iodide] are 12.2 µM, above 100 µM, 12.5 µM and 1.43 µM.
In the case of `COCCOCCO/N=C1\c2ccccc2C(=O)c2c1[n+](C)cn2C` [Compound 146, (E)-4-((2-(2-methoxyethoxy)ethoxy)imino)-1,3-dimethyl-9-oxo-4,9-dihydro-1H-naphthol[2,3-d]imidazole-3-iodide], the IC50 in the assay with A549 (setting [1]) is 0.009 µM; in the assay with L929 (setting [2]), 24.6 µM; in the assay on HeLa (Homo sapiens, HeLa), 23 µM; in the assay on MCF-7 (setting [3]) it was 32.8 µM.
On to `Cn1c[n+](C)c2c1C(=O)c1ccccc1C2=NOCC1CC1` [Compound 131, (E) and (Z)-4-((cyclopropylmethoxy)imino)-1,3-dimethyl-9-oxo-4,9-dihydro-1H-naphthol[2,3-d]imidazole-3-iodide], for which the IC50 in the assay with A549 (24 h or 48 h after addition) stood at 0.07 µM; in the assay on L929 (24 h or 48 h after addition), 24.7 µM; with HeLa, 21 µM; in the assay with MCF-7 (24 h or 48 h after addition), 9.9 µM.
For `CCCCn1c[n+](C)c2c1C(=O)c1ccccc1C2=NOCc1ccccc1` [Compound 121, (E) and (Z)-4-((benzyloxy)imino)-1-butyl-3-methyl-9-oxo-4,9-dihydro-1H-naphthol[2,3-d]imidazole-3-iodide], the concentration for half-maximal inhibition (IC50) stood at 0.09 µM in the assay with A549 (24 h or 48 h after addition), 61 µM in the assay on L929 (24 h or 48 h after addition), 28 µM with HeLa and 6.8 µM in the assay with MCF-7 (24 h or 48 h after addition).
With `Cn1c[n+](C)c2c1C(=O)c1ccccc1C2=NOCc1c(F)c(F)c(F)c(F)c1F` [Compound 137, (E) and (Z)-1,3-dimethyl-9-oxo-4-(((perfluorophenyl)methoxy)imino)-4,9-dihydro-1H-naphthol[2,3-d]imidazole-3-iodide], the IC50 in the assay on A549 (24 h or 48 h after addition) stood at 0.05 µM; with L929 (24 h or 48 h after addition), 9.7 µM; in the assay with HeLa, 15.4 µM; with MCF-7 (24 h or 48 h after addition), 24.8 µM.
On the same counts, the results for `CC(C)Cn1c[n+](C)c2c1C(=O)c1ccccc1/C2=N\O` [Compound 96, (E)-4-(hydroxylimino)-1-isobutyl-3-methyl-9-oxo-4,9-dihydro-1H-naphthol[2,3-d]imidazole-3-iodide] are 2.43 µM, 57.4 µM, 9.7 µM and 1.26 µM.
On to `Cn1c[n+](C)c2c1C(=O)c1ccccc1/C2=N\O` [Compound 91, (E)-1-methyl-4-(hydroxylimino)-3-methyl-9-oxo-4,9-dihydro-1H-naphthol[2,3-d]imidazole-3-iodide], for which the IC50 in the assay with A549 (24 h or 48 h after addition) was determined as 0.53 µM; in the assay on L929 (24 h or 48 h after addition) it was 4.7 µM; in the assay on HeLa, 0.67 µM; in the assay on MCF-7 (24 h or 48 h after addition) it was 0.84 µM.
The corresponding values for `CC(C)n1c[n+](C)c2c1C(=O)c1ccccc1/C2=N\O` [Compound 95, (E)-4-(hydroxylimino)-1-isopropyl-3-methyl-9-oxo-4,9-dihydro-1H-naphthol[2,3-d]imidazole-3-iodide] are 1.89 µM, 26.3 µM, 18.3 µM and 2 µM.
The corresponding values for `C[n+]1cn(-c2ccc(F)c(Cl)c2)c2c1/C(=N/O)c1ccccc1C2=O` [Compound 116, (E)-1-(3-chloro-4-fluorophenyl)-4-(hydroxylimino)-3-methyl-9-oxo-4,9-dihydro-1H-naphthol[2,3-d]imidazole-3-iodide] are 2.3 µM, above 100 µM, above 100 µM and above 100 µM.
On the same counts, the results for `Cn1c[n+](C)c2c1C(=O)c1ccccc1/C2=N\OCC1OCCO1` [Compound 143, (E)-4-(((1,3-dioxoheterocycle-2-yl)methoxy)imino)-1,3-dimethyl-9-oxo-4,9-dihydro-1H-naphthol[2,3-d]imidazole-3-iodide] are 0.03 µM, 34.8 µM, 25.8 µM and 34.9 µM.
For `C[n+]1cn(-c2ccccc2F)c2c1/C(=N/O)c1ccccc1C2=O` [Compound 109, (E)-1-(2-fluorophenyl)-4-(hydroxylimino)-3-methyl-9-oxo-4,9-dihydro-1H-naphthol[2,3-d]imidazole-3-iodide], the IC50 is 11.2 µM in the assay on A549 (24 h or 48 h after addition), above 100 µM in the assay on L929 (24 h or 48 h after addition), 50 µM in the assay on HeLa and 57.8 µM in the assay with MCF-7 (24 h or 48 h after addition).
On the same counts, the results for `COc1ccc(-n2c[n+](C)c3c2C(=O)c2ccccc2/C3=N\O)cc1` [Compound 114, (E)-4-(hydroxylimino)-1-(4-methoxyphenyl)-3-methyl-9-oxo-4,9-dihydro-1H-naphthol[2,3-d]imidazole-3-iodide] are 2.42 µM, above 100 µM, 33.8 µM and 33 µM.
For `CC(C)=CCn1c[n+](C)c2c1C(=O)c1ccccc1/C2=N\O` [Compound 101, (E)-4-(hydroxylimino)-3-methyl-1-(3-methyl-2-ene-1-yl)-9-oxo-4,9-dihydro-1H-naphthol[2,3-d]imidazole-3-iodide], the IC50 in the assay on A549 (24 h or 48 h after addition) stood at 0.64 µM; in the assay with L929 (24 h or 48 h after addition), 13.1 µM; in the assay with HeLa it was 1.8 µM; in the assay with MCF-7 (24 h or 48 h after addition), 0.87 µM.
The corresponding values for `C[n+]1cn(Cc2ccccc2)c2c1/C(=N/O)c1ccccc1C2=O` [Compound 102, (E)-1-benzyl-4-(hydroxylimino)-3-methyl-9-oxo-4,9-dihydro-1H-naphthol[2,3-d]imidazole-3-iodide] are 0.63 µM, 37.4 µM, 1.05 µM and 0.89 µM.
On the same counts, the results for `CCCn1c[n+](C)c2c1C(=O)c1ccccc1/C2=N\O` [Compound 93, (E)-4-(hydroxylimino)-3-methyl-9-oxo-1-propyl-4,9-dihydro-1H-naphthol[2,3-d]imidazole-3-iodide] are 1.03 µM, 32.7 µM, 2.18 µM and 1.43 µM.
The corresponding values for `COCCO/N=C1\c2ccccc2C(=O)c2c1[n+](C)cn2C` [Compound 144, (E)-4-((2-methoxyethoxy)imino)-1,3-dimethyl-9-oxo-4,9-dihydro-1H-naphthol[2,3-d]imidazole-3-iodide] are 0.06 µM, 46.6 µM, 23.3 µM and 33 µM.
Consider `CCOC(=O)Cn1c[n+](C)c2c1C(=O)c1ccccc1/C2=N\O` [Compound 103, (E)-1-(2-ethoxy-2-ethoxy)-4-(hydroxylimino)-3-methyl-9-oxo-4,9-dihydro-1H-naphthol[2,3-d]imidazole-3-iodide], for which the IC50 in the assay with A549 (24 h or 48 h after addition) is 0.6 µM; with L929 (24 h or 48 h after addition), above 100 µM; with HeLa, 2.73 µM; in the assay with MCF-7 (24 h or 48 h after addition), 1.63 µM.
For `Cn1c[n+](C)c2c1C(=O)c1ccccc1/C2=N\OCCOCc1ccccc1` [Compound 145, (E)-4-((2-(benzyloxy)ethoxy)imino)-1,3-dimethyl-9-oxo-4,9-dihydro-1H-naphthol[2,3-d]imidazole-3-iodide], the half-inhibitory concentration (IC50) with A549 (setting [1]) was 0.04 µM; with L929 (setting [2]) it was 45.1 µM; in the assay with HeLa (Homo sapiens, HeLa) it was 34.2 µM; in the assay with MCF-7 (setting [3]), 34.8 µM.
For the compound `CC[n+]1cn(C)c2c1C(=NOC)c1ccccc1C2=O` [Compound 126, (E) and (Z)-3-ethyl-4-(methoxylimino)-1-methyl-9-oxo-4,9-dihydro-1H-naphthol[2,3-d]imidazole-3-iodide], the IC50 in the assay with A549 (24 h or 48 h after addition) is 0.59 µM; in the assay on L929 (24 h or 48 h after addition) it was 85.2 µM; in the assay with HeLa, 39 µM; in the assay with MCF-7 (24 h or 48 h after addition), 12.2 µM.
